Test results as given in PMC8703450, “New Heterocyclic Combretastatin A-4 Analogs: Synthesis and Biological Activity of Styryl-2(3H)-benzothiazolones” (Pharmaceuticals, 2021).

Tests used:
EA.hy926 cells [1] = assay: MTT cytotoxicity / growth inhibition assay, EA.hy926; assay type: cell-based, human
Experimental: The endothelial cell line (EA.hy926) was kindly provided by Dr. C-J.S. Edgell—University of North Carolina, USA. Cells were cultured in 4.5 g/L D-Glucose DMEM/F12 medium, supplemented with 10% fetal bovine serum (FBS, Cytogen GmBH, Greven, Germany) and 100 U/mL penicillin and streptomycin (Lonza BioWhitaker, Verviers, Belgium). The other cell lines used are described in Table S3.1. Cell cultures were maintained in an incubator at 37 °C with 95% humidity and 5% CO2 and were routinely found free of mycoplasma.
All tested compounds were dissolved in DMSO at 25 mM initial concentration and diluted with medium to obtain the working concentrations (0.01 nM–250 µM). Serial drug dilutions were prepared in medium immediately before each experiment. The DMSO working concentration in the medium was […]. For the MTT assay, cells were seeded into 96-well microtitre plates at a density of 1 × 10^4 in 100 µL complete medium per well. They were further incubated for 24 h, followed by treatment with CA-4 analogs up to 72 h. Cell viability was determined using the MTT assay. Ten µL of MTT solution (5 mg/mL) was added to each well and further incubated for 3 h at 37 °C. To dissolve the formazan product, 100 µL/well of 99.5% isopropanol was added. Cell viability was determined by measuring absorbance at 550/630 nm using a DTX880 plate reader (Beckman Coulter, USA). Results, expressed as concentrations that inhibit 20% (IC20), 50% (IC50), and 80% (IC80) of cell growth, were calculated using GraphPad Prism 8.0.1.

EA.hy926 cells [2] = assay: Clonogenic survival assay; assay type: cell-based, human; settings: 72 h treatment + 6 days recovery; for decrease in colony number: EA.hy926, 250 nM; for reduction in colony formation: EA.hy926, 2.5, 10 and 25 µM
Experimental: EA.hy926 cells were seeded at 300 cells/well on a 6-well plate and incubated for 24 h. The cells were treated with different concentrations of test compounds for 72 h. After six additional days of growth in a fresh medium to form visible colonies, cells were washed with phosphate-buffered saline (PBS, pH 7.4) and stained with crystal violet (0.5%, w/v) in 6% glutaraldehyde. After 30 min of incubation, the plates were washed with tap water, dried, photographed, and analyzed using ImageJ [79]. Raw data were normalized to the corresponding DMSO control for each independent experiment. After normalization, statistically significant differences for colony-forming efficiency (CFE) values versus […] were calculated.

EA.hy926 cells [3] = assay: In vitro cell migration (wound-healing) assay; assay type: cell-based, human; settings: EA.hy926, 50 nM, 24 h
Experimental: A total of 3 × 10^5 EA.hy926 cells were seeded in a 12-well plate and grown close to the confluence. The cell monolayer was gently scraped with a P200 pipette tip, creating a wound area around 1-mm wide. Cells were washed twice with fresh medium and treated with test compounds diluted in growth media to the corresponding sub-toxic concentrations. Images were acquired at 0 and 24 h following treatment. After incubation for 24 h, the scratch wound width was measured and recorded, and then compared with the initial scratch wound width at 0 h. Using the ImageJ image processing program (ImageJ150-WIN-Java8), the size of the denuded area in pixels was determined at each time point from the digital images.

EA.hy926 cells [4] = assay: Matrigel tube disruption assay; assay type: cell-based, human; settings: EA.hy926 on Matrigel, IC50 concentration, 24 h of treatment, compared with time 0
Experimental: The tube formation assay was performed in 96-well plates coated with 40 µL BD Matrigel™ (basement membrane matrix), following the manufacturer’s instruction (BD Biosciences). A total of 2 × 10^4 EA.hy926 cells was re-suspended in growth medium and added to each well in a final volume of 100 µL. Tube formation was visualized directly using a light microscope. Images were captured using a phase-contrast microscope and quantitation was performed using the WimTube application of the Wimasis online image analysis platform (https://www.wimasis.com/en/products/13/WimTube; accessed on 1 June 2021).

α,β-tubulin = assay: In vitro quantification of polymeric vs. soluble tubulin fractions in EA.hy926 cells; assay type: cell-based, human; settings: EA.hy926, 1 µM, 6 h; DMSO control 2.33 ± 0.14
Experimental: To assess the early effects on the microtubule cytoskeleton in vitro, EA.hy926 cells were cultured for 24 h in 6-cm dishes (3 × 10^5 cells). They were exposed to […] (control), 1 μM CA-4, paclitaxel, or increasing concentrations of 26Z (50, 100, 250, 2500, 10,000 nM) for 6 h. Cells were washed with PBS and lysed directly in the dishes with hypotonic lysis buffer (20 mM Tris-HCl, 1 mM MgCl2, 2 mM EGTA, 0.5% Triton X-100, glycerol 10%, pH 6.8), supplemented with protease inhibitors (2 μg/mL leupeptin, 2 μg/mL pepstatin, 0.4 mM Na vanadate, 0.5 mM PMSF, 1 mM DTT), for 3 min at 30 °C. The soluble fraction was immediately collected, mixed with 5× sample buffer, and boiled at 95 °C for 5 min. The polymerized fraction was collected directly from the culture dish following 10 min of incubation at room temperature with 1× sample buffer.
For the concentration-dependent assay, the cells were harvested by scraping and centrifuged at 1000 g for 5 min, and then lysed with the hypotonic cell lysis buffer for 10 min at room temperature. Tubulin fractions were obtained by centrifugation at 12,000 × g for 10 min.
Equal volumes of the samples were subjected to 10% SDS-PAGE followed by western blotting. Detection of β-tubulin content was accomplished with an anti-β-tubulin mouse monoclonal antibody (sc-101527, Santa Cruz Biotechnology).

[5] = tested on: rhodamine-labeled α,β-tubulin; assay: Ex vivo rhodamine-tubulin polymerization (fluorescence microscopy); settings: 20 μM, 37 °C, 45 min
Experimental: TAMRA-Tubulin (TL590M, Cytoskeleton) diluted in GTB buffer (PEM, 10% glycerol, 1 mM GTP) was mixed with unlabeled α,β-tubulin (T240, Cytoskeleton) at a ratio of 1:3 (v/v) to a concentration of 4.0 mg/mL. […] Samples were then centrifuged for 20 min at 30,000× g. The pellets were diluted in 6 µL PEM buffer, containing 1 mM GTP and 0.5% glutaraldehyde, mixed with anti-fade mounting media (P36934, Invitrogen, Eugene, USA), and examined under a confocal LSM 980 Airyscan microscope (Carl Zeiss AG, Oberkochen, Germany).

[6] = Homo sapiens, EA.hy 926, 72 h of treatment

## COc1ccc(/C=C\c2cccc3sc(=O)n(C)c23)cc1 [Compound 15Z, (E/Z)-4-(4-Methoxystyryl)-3-Methyl-2(3H)-Benzothiazolone]
EA.hy926 cells [1]; 72 h of treatment
  IC50: 22 ± 4.57 µM

## COc1ccc(/C=C\c2cccc3sc(=O)n(C)c23)cc1OC [Compound 16Z, (Z)-4-(3,4-Dimethoxystyryl)-3-methyl-2(3H)-benzothiazolone]
EA.hy926 cells [1]; [6]
  IC50: 25.8 ± 3.11 µM

## COc1cc(/C=C\c2cccc3sc(=O)n(C)c23)cc(OC)c1 [Compound 17Z, (Z)-4-(3,5-Dimethoxystyryl)-3-methyl-2(3H)-benzothiazolone]
EA.hy926 cells [1]; [6]
  IC50: 19.5 ± 2.71 µM

## COc1cc(/C=C\c2cccc3sc(=O)n(C)c23)cc(OC)c1OC [Compound 18Z, (Z)-3-Methyl-4-(3,4,5-trimethoxystyryl)-2(3H)-benzothiazolone]
EA.hy926 cells [1]; [6]
  IC50: 15.6 ± 1.16 µM

## COc1ccc(/C=C\c2ccc3sc(=O)n(C)c3c2)cc1 [Compound 19Z, (Z)-5-(4-Methoxystyryl)-3-methyl-2(3H)-benzothiazolone]
EA.hy926 cells [1]; [6]
  IC50: 12 ± 2.49 µM

## COc1ccc(/C=C\c2ccc3sc(=O)n(C)c3c2)cc1OC [Compound 20Z, (Z)-5-(3,4-Dimethoxystyryl)-3-methyl-2(3H)-benzothiazolone]
EA.hy926 cells [1]; [6]
  IC50: 14.6 ± 1.75 µM

## COc1cc(/C=C\c2ccc3sc(=O)n(C)c3c2)cc(OC)c1 [Compound 21Z, (Z)-5-(3,5-Dimethoxystyryl)-3-methyl-2(3H)-benzothiazolone]
EA.hy926 cells [1]; [6]
  IC50: 10.8 ± 0.62 µM

## COc1cc(/C=C\c2ccc3sc(=O)n(C)c3c2)cc(OC)c1OC [Compound 22Z, (Z)-3-Methyl-5-(3,4,5-trimethoxystyryl)-2(3H)-benzothiazolone]
EA.hy926 cells [1]; [6]
  IC50: 9.43 ± 0.92 µM

## COc1ccc(/C=C\c2ccc3c(c2)sc(=O)n3C)cc1 [Compound 23Z, (Z)-6-(4-Methoxystyryl)-3-methyl-2(3H)-benzothiazolone]
EA.hy926 cells [1]; [6]
  IC50: 19.8 ± 3.45 µM

## COc1ccc(/C=C\c2ccc3c(c2)sc(=O)n3C)cc1OC [Compound 24Z, (Z)-6-(3,4-Dimethoxystyryl)-3-methyl-2(3H)-benzothiazolone]
EA.hy926 cells [1]; [6]
  IC50: 9.28 ± 1.13 µM

## COc1cc(/C=C\c2ccc3c(c2)sc(=O)n3C)cc(OC)c1 [Compound 25Z, (Z)-6-(3,5-Dimethoxystyryl)-3-methyl-2(3H)-benzothiazolone]
EA.hy926 cells [1]; [6]
  IC50: 1.88 ± 0.18 µM
EA.hy926 cells [2]
  decrease in colony number: 55%
  reduction in colony formation: about 100%
EA.hy926 cells [3]
  remaining mean wound opened area: 22.4%

## COc1cc(/C=C/c2ccc3c(c2)sc(=O)n3C)cc(OC)c1OC [Compound 26E, (E/Z)-3-Methyl-6-(3,4,5-Trimethoxystyryl)-2(3H)-Benzothiazolone]
EA.hy926 cells [1]; 72 h of treatment
  IC50: 38.2 ± 5.35 µM

## COc1cc(/C=C\c2cccc3c2sc(=O)n3C)cc(OC)c1OC [Compound 27Z, (E/Z)-3-Methyl-7-(3,4,5-Trimethoxystyryl)-2(3H)-Benzothiazolone]
EA.hy926 cells [1]; [6]
  IC50: 0.3 ± 0.05 µM
EA.hy926 cells [2]
  decrease in colony number: 75%
  reduction in colony formation: about 100%
EA.hy926 cells [3]
  remaining mean wound opened area: 3%
EA.hy926 cells [4]
  reduction in cumulative tube length: ~ 70%
α,β-tubulin
  soluble vs. polymerized tubulin ratio: 1.82 ± 0.36
other
  melting point: 155 to 156 °C

## CC(=O)O[C@H]1C(=O)[C@@]2(C)[C@H]([C@H](OC(=O)c3ccccc3)[C@]3(O)C[C@H](OC(=O)[C@H](O)[C@@H](NC(=O)c4ccccc4)c4ccccc4)C(C)=C1C3(C)C)[C@]1(OC(C)=O)CO[C@@H]1C[C@@H]2O [paclitaxel, reference compound]
α,β-tubulin
  soluble vs. polymerized tubulin ratio: 0.51 ± 0.19
[5]
  fluorescent microtubule fiber formation: promoted the formation of microtubule fibers
